Measured values: the supplement of paper PMC8671470

Experiments:
Conditions in all cases: 72 h
HL-60 [1] = assay: cell viability (% survival relative to DMSO control); higher = less cytotoxic
Procedure, shortened: (§1)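 Area under the curve, where listed, was derived from four-parameter log-logistic fits with drc and PharmacoGx. These fits used CellTiter-Glo viability from HL-60 cells in RPMI 1640 with 10% FBS, normalised to DMSO wells and wells holding 10 μM proteasome inhibitor. The full library was rescreened on 384-well plates in duplicate at five tenfold concentrations, 1–10,000 nM, with DMSO or 100 nM of one of three metabolic inhibitors, for 72 h at 37 °C, 5% CO2.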

HL-60 [2] = assay: area under dose-response curve (viability, 1 nM-10 uM) (fraction (0-1)); higher = more sensitive
Procedure, shortened: as §1

KCL-22 [3] = test system: KCL-22
Procedure, shortened: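 Fifteen myeloid leukaemia cell lines were seeded in RPMI 1640 at a density titrated to the linear growth range. Each line went into 384-well plates with compounds acoustically pre-printed at five tenfold doses from 1 to 10,000 nM, in duplicate, and was incubated for 72 h at 37 °C with 5% CO2. Luminescent ATP viability was normalised to vehicle and to a positive control at 10 µM. The IC50 came from four-parameter log-logistic dose–response fits.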

KG-1 = assay: cell viability (% survival relative to DMSO control, bortezomib = 0%); higher = less cytotoxic
Procedure, shortened: (§2)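 After 72 h at 37 °C with 5% CO2, cell viability in 384-well plates was measured by CellTiter-Glo luminescence. The plates held compounds pre-printed at 1, 10, 100, 1000 or 10000 nM in duplicate, and cells from 10 AML and 5 CML lines seeded at densities titrated to linear growth. Percent survival is the duplicate mean, normalised to vehicle as 100% and a 10 µM positive control as 0%.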

HL-60 [4] = assay: as above
Procedure, shortened: as §2

LAMA-84 = assay: as above
Procedure, shortened: as §2

KCL-22 [5] = assay: as above
Procedure, shortened: as §2

ML-2 = assay: as above
Procedure, shortened: as §2

K-562 = assay: as above
Procedure, shortened: as §2

HEL = assay: as above
Procedure, shortened: as §2

SHI-1 = assay: as above
Procedure, shortened: as §2

THP-1 = assay: as above
Procedure, shortened: as §2

MOLM-13 = assay: as above
Procedure, shortened: as §2

MV4-11 = assay: as above
Procedure, shortened: as §2

BV-173 = assay: as above
Procedure, shortened: as §2

NOMO-1 = assay: as above
Procedure, shortened: as §2

KU-812 = assay: as above
Procedure, shortened: as §2

Mono-Mac-6 = assay: as above
Procedure, shortened: as §2

O=C(O)C1=CC(=C(c2ccc(O)c(C(=O)O)c2)c2ccc(O)c(C(=O)O)c2)C=CC1=O [Aurintricarboxylic acid]
cell viability [%], HL-60 [1]
Conditions	0.001 µM	0.01 µM	0.1 µM	1 µM	10 µM
co-treatment: AZD3965 100 nM	95.9	101	101	94.5	98.9
co-treatment: DMSO vehicle	101	81.6	106	104	97.6
co-treatment: GSK2194069 100 nM	94.1	82.3	98.7	98.3	82.5
co-treatment: pictilisib 100 nM	99.3	99.3	96.2	101	103

Conditions	area under dose-response curve, co-treatment: AZD3965 100 nM	area under dose-response curve, co-treatment: DMSO vehicle	area under dose-response curve, co-treatment: GSK2194069 100 nM	area under dose-response curve, co-treatment: pictilisib 100 nM	cell viability, 1 nM [%]	cell viability, 10 nM [%]	cell viability, 100 nM [%]	cell viability, 1000 nM [%]	cell viability, 10000 nM [%]
BV-173	–	–	–	–	114	104	107	88.3	9.49
HEL	–	–	–	–	108	85.9	115	92.5	21.8
HL-60 [2]	< 0.0301	< 0.0301	< 0.0301	< 0.0301	–	–	–	–	–
HL-60 [4]	–	–	–	–	103	87.8	103	91.1	111
K-562	–	–	–	–	88.9	104	82	101	128
KCL-22 [5]	–	–	–	–	131	94.8	92	116	119
KG-1	–	–	–	–	104	94.5	99.9	89.6	78.9
KU-812	–	–	–	–	98	102	106	96	102
LAMA-84	–	–	–	–	105	102	100	89	106
ML-2	–	–	–	–	107	97.7	97.5	96.4	92.9
MOLM-13	–	–	–	–	91.3	101	107	82.8	30.9
MV4-11	–	–	–	–	103	100	86.3	97	71.9
Mono-Mac-6	–	–	–	–	98.6	98.6	104	105	89.7
NOMO-1	–	–	–	–	95.8	108	109	90.1	80.9
SHI-1	–	–	–	–	104	91.8	99	100	114
THP-1	–	–	–	–	105	101	109	97.5	99.4

Conditions	IC50 (cell viability) [µM]
KCL-22 [3]	> 10
